According to patent US20220298511A1, “APPLICATION OF COMBINED INHIBITION OF LNCRNA SAMMSON AND BRAF KINASE IN DELAYING ADAPTIVE DRUG-RESISTANCE OF MELANOMA” (XI'AN JIAOTONG UNIVERSITY, priority 2021, published 2022):

Legend:
[1] = tested on: SAMMSON RNA level in A375 melanoma cells carrying BRAF^V600E mutation; assay: qRT-PCR analysis of SAMMSON RNA level after kinase inhibitor treatment; conditions: 2 μM inhibitor, 0, 6 and 24 hours, actin as internal control
Experimental: (§3) Melanoma cell lines 1205Lu and A375 carrying BRAF^V600E mutation and HEK293FT cells were cultured in a 37° C. constant temperature incubator (containing 5% CO2). The A375 and HEK293FT cells were cultured in Dulbecco's Modified Eagle's Medium (DMEM), and the 1205Lu cells were cultured in Roswell Park Memorial Institute 1640 medium (RPMI 1640 medium). Both of the media contain 10% fetal bovine serum, penicillin (100 units/ml), and streptomycin (100 μg/ml).
(§4) Total RNA was extracted from the melanoma cells using TriPure Isolation Reagent (Roche, Basel, Switzerland), and then reverse transcribed into cDNA using the kit PrimeScript RT Master Mix (Takara #DRR036A, Osaka, Japan). Quantitative real-time PCR reactions were performed using iQ SYBR Green Supermix (BioRad), and analyzed by CFX Connect real-time PCR detection system (BioRad).

[2] = tested on: SAMMSON RNA level in 1205Lu melanoma cells carrying BRAF^V600E mutation; assay: as above; conditions: 1205Lu cells, 2 μM inhibitor, 0, 6 and 24 hours, actin as internal control
Experimental: as §3, §4

A375 TR SAMMSON cells = assay: Annexin-V/PI apoptosis assay with doxycycline-induced SAMMSON overexpression; format: cell-based; conditions: 5 μM vemurafenib 48 hours
Experimental: (§1) The wild-type HA-SOX10 cDNA or SAMMSON cDNA was cloned into a pENTR/D-TOPO vector (Thermo Fisher Scientific) to construct an entry vector. Then, the entry vector and a pLentipuro/TO/V5-DEST vector were recombined to form a lentiviral vector. Lentivirus packaging for the lentiviral vector was performed in HEK293FT cells to produce lentiviruses. The melanoma cells 1205Lu and A375 were infected with the lentiviruses for 72 hours, and then screened by using puromycin to produce A375-TR HA-SOX10 WT cells, 1205Lu-TR HA-SOX10 WT cells, A375-TR SAMMSON cells and 1205Lu-TR SAMMSON cells.
(§2) The cells were collected, washed twice with PBS and stained for 20-30 minutes using Annexin-V-FLUOS kit (Roche) according to the manufacturer's protocol. The stained cells were analyzed by a flow cytometer (Beckman Coulter, Indianapolis Ind., USA). The data were analyzed using Flowjo software (Three Star, Inc., Ashland, Oreg., USA).

1205Lu TR SAMMSON cells = assay: as above; format: cell-based; conditions: 5 μM vemurafenib 48 hours
Experimental: as §1, §2

A375 cells = assay: Annexin-V/PI apoptosis assay with SAMMSON siRNA knockdown and vemurafenib; format: cell-based; conditions: then 5 μM vemurafenib 48 hours
Experimental: as §2
The non-targeting control siRNA sequence is:
We tested whether the up-regulation of SAMMSON induced by the inhibition of the ERK signaling pathway is involved in the adaptive drug-resistance of melanoma cells. Two pairs of specific siRNAs (SEQ ID NO: 4 and SEQ ID NO: 5) were used to knock down SAMMSON in two melanoma cell lines A375 and 1205Lu carrying BRAF mutations. […] Referring also to FIGS. 3C to 3F, in A375 cells, percentage of cell apoptosis increased from 19% to 43% (SAM #1) and 37% (SAM #2), and in 1205Lu cells, from 26% to 43% (SAM #1) and 46% (SAM #2).

[3] = with 100 ng/ml doxycycline 72 hours (SAMMSON overexpressed)

Compound: O=C(Nc1ccc2[nH]nc(-c3ccncc3)c2c1)[C@@H]1CCN(CC(=O)N2CCN(c3ccc(-c4ncccn4)cc3)CC2)C1 [SCH772984]
- RNA level of SAMMSON [1]: rapidly up-regulate the RNA level of SAMMSON
- RNA level of SAMMSON [2]: rapidly up-regulate the RNA level of SAMMSON

Compound: CCCS(=O)(=O)Nc1ccc(F)c(C(=O)c2c[nH]c3ncc(-c4ccc(Cl)cc4)cc23)c1F [vemurafenib, Vemurafenib]
- percentage of cell apoptosis (A375 TR SAMMSON cells; [3]): 33%
- percentage of cell apoptosis (A375 TR SAMMSON cells; without doxycycline): 51%
- percentage of cell apoptosis (1205Lu TR SAMMSON cells; [3]): 33%
- percentage of cell apoptosis (1205Lu TR SAMMSON cells; without doxycycline): 44%
- percentage of cell apoptosis (A375 cells; control siRNA 48 hours): 19%

Compound: SAM #1: SAMMSON-specific siRNA, SEQ ID NO: 4, 5′-GUCGCUAGACAUUUGAGGA-3′ (listed as RNA, chemistry not given here)
- percentage of cell apoptosis (A375 cells; SAMMSON siRNA 48 hours): 43%

Compound: SAM #2: SAMMSON-specific siRNA, SEQ ID NO: 5, 5′-CCAACUCUCAAAGUAACUU-3′ (listed as RNA, chemistry not given here)
- percentage of cell apoptosis (A375 cells; SAMMSON siRNA 48 hours): 37%
